From patent US20150168379A1, “METHOD OF IDENTIFYING AND SCREENING DRUG CANDIDATE FOR PREVENTING AND/OR TREATING ISCHEMIC MYOCARDIAL DISEASE” (Macau University of Science and Technology, priority 2013, published 2015)
Entries after “also recorded” stand apart in the source; their conditions may differ.

Key:
H9C2 cell line [1] = experiment: Apoptosis rate of myocardial cells under hypoxia and reoxygenation by flow cytometry; format: cell-based; settings: 3-hour hypoxia and 3-hour reoxygenation
Protocol: (§1) Myocardial cell lines, H9C2 and HL-1 were respectively seeded into culture dishes. KRB (Krebs-Ringer Bicarbonate buffer) solution replaced normal DMEM medium without the addition of serum. Cells were immediately placed in adjustable hypoxia box (Billups-Rothenberg) connected with gas flowmeter (rate of flow: 25L/min), in which the partial pressure of oxygen in the box was made to decrease from 20 kPa to 0 kPa within one minute. Hypoxia box was placed in a regular incubator for different incubation periods to create hypoxia conditions. […]
(§2) Seven components of protopanaxatriol-type ginsenosides, namely Re, Rf, Rg1, 20(S)-Rg2, 20(R)-Rg2, 20(S)-Rh1 and 20(R)-Rh1, were used to pre-treat myocardial cells. […] The effects of each component on survival, mitochondrial respiration, morphology, and mitochondrial function and movement of myocardial cells were analyzed, and the results thereof were used in candidate agent selection.
(§3) Membrane potential of mitochondria, apoptosis rate, ROS release and cell cytotoxicity of myocardial cells were analyzed by flow cytometry. […] Fluorescence intensity of cells were analyzed by flow cytometry (each sample contains more than 10,000 cells). Cell fluorescence image was analyzed with fluorescence intensity of Rh123 as x-axis and fluorescence intensity of PI as y-axis. […]

H9C2 cell line [2] = experiment: ROS release (DCFDA, flow cytometer); format: cell-based
Protocol: Cells were harvested and a single cell suspension was produced by gently pipetting up and down suspension cells or by fully detaching adherent cells. Cells in culture media were stained with 20 μM DCFDA and incubated for 30 minutes at 37° C. After staining, cells were treated with Rg1, DOX or Sil. Cells were gently pipetted to produce single cell suspension. Cells were then analyzed by flow cytometer in which forward and side scatter gates were established to exclude debris and cellular aggregates from the analysis. DCF was excited by the 488 nm laser and detected at 535 nm (typically FL1). 10,000 cells were analyzed per experimental condition. The whole study was repeated 3 times.

H9C2 cell line [3] = experiment: Mitochondrial membrane potential changes by flow cytometer (JC-1); format: cell-based
Protocol: Myocardial cell lines, H9C2 and HL-1 were respectively seeded into culture dishes. KRB (Krebs-Ringer Bicarbonate buffer) solution replaced normal DMEM medium without the addition of serum. Cells were immediately placed in adjustable hypoxia box (Billups-Rothenberg) connected with gas flowmeter (rate of flow: 25L/min), in which the partial pressure of oxygen in the box was made to decrease from 20 kPa to 0 kPa within one minute. Hypoxia box was placed in a regular incubator for different incubation periods to create hypoxia conditions. Hypoxia box was then opened and the medium was replaced with normal medium containing serum, followed by normal incubation at 37° C. for the time periods corresponding to those in the hypoxia conditions in order to create re-oxygenation conditions.
Seven components of protopanaxatriol-type ginsenosides, namely Re, Rf, Rg1, 20(S)-Rg2, 20(R)-Rg2, 20(S)-Rh1 and 20(R)-Rh1, were used to pre-treat myocardial cells. Each component was dissolved with normal medium and DMSO as co-solvent and used to pre-treat cells one hour before hypoxia. Subsequently, medium was replaced with hypoxia medium. The effects of each component on survival, mitochondrial respiration, morphology, and mitochondrial function and movement of myocardial cells were analyzed, and the results thereof were used in candidate agent selection.
Membrane potential of mitochondria, apoptosis rate, ROS release and cell cytotoxicity of myocardial cells were analyzed by flow cytometry. Upon pre-treatment of cells in different groups with Rg1, Sil (Sildenafil, the positive control drug), DOX (Doxorubicin, a cardiac toxic chemical which can induce H/R damage in myocardial cells) or FCCP (Carbonyl cyanide 4-(trifluoromethoxy) phenylhydrazone), the cells were then treated with hypoxia and reoxygenation conditions, in which the duration of each condition was 3 hours. 1 ml PBS buffer was added into culture dish with mixing. […] Fluorescence intensity of cells were analyzed by flow cytometry (each sample contains more than 10,000 cells). […]

Mitofusin 2 (Mfn2) = target: T1, Mitofusin 2 (Mfn2) (Mus musculus, UniProt Q80U63); experiment: Binding with mitofusin-2 in myocardial cells under hypoxia and reoxygenation (western blotting); settings: FIG. 9
T1 construct: endogenous in cells; host or cells: myocardial cells under hypoxia and reoxygenation (method text: total protein from mouse myocardial infarction tissue)
T1 sequence (Q80U63 1-757): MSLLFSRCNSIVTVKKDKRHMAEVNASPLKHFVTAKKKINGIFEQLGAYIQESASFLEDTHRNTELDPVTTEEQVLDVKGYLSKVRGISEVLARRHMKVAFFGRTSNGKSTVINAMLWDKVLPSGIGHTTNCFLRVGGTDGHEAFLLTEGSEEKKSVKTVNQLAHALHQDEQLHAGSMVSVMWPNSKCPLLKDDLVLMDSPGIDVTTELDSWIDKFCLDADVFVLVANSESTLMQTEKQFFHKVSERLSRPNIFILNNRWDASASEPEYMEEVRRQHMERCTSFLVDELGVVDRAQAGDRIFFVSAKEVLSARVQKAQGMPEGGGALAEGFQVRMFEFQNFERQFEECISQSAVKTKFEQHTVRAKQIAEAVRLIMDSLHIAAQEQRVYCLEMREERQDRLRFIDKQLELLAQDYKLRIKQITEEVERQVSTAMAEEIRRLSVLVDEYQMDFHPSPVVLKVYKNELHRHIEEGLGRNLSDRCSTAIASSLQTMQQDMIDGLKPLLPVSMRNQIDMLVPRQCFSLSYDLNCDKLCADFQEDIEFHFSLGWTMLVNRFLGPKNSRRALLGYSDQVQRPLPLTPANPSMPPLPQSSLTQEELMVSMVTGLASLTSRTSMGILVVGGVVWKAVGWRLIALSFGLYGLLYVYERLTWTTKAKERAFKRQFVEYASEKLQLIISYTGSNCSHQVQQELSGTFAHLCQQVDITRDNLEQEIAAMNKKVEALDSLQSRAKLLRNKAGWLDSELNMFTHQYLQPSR

H9C2 cell line [4] = experiment: Cell cytotoxicity of myocardial cells under hypoxia and reoxygenation by flow cytometry; format: cell-based; settings: pretreated, FIG. 5
Protocol: as §1, §2, §3

H9C2 cell line [5] = experiment: Survival rate of myocardial cells under hypoxia and reoxygenation (MTT); format: cell-based; settings: H9C2, pre-treated one hour before hypoxia, FIG. 2/3
Protocol: as §1
as §2, with “selection. […]” for “selection.”
Optical density (OD) of cells was measured at wavelength of 570 nm by multiple-well plate spectrophotometer. Survival rate of the cells incubated under normal condition was set as 100%, and the survival rate of the blank control group was measured simultaneously as baseline for background subtraction. […]

[6] = tested on: bal-2, procaspase-3, procaspase-9, Akt, and Erk in myocardial cells; experiment: Expression levels of proteins of the mitochondrial-induced apoptosis pathway by western blotting; format: cell-based; settings: 100 μM
[7] = 100 μM, compared with the control group
[8] = 200 μM, compared with the control group

CC(C)=CCC[C@](C)(O[C@@H]1O[C@H](CO)[C@@H](O)[C@H](O)[C@H]1O)[C@H]1CC[C@]2(C)[C@@H]1[C@H](O)C[C@@H]1[C@@]3(C)CC[C@H](O)C(C)(C)[C@@H]3[C@@H](O[C@@H]3O[C@H](CO)[C@@H](O)[C@H](O)[C@H]3O)C[C@]12C [Rg1]
Apoptosis rate of myocardial cells (H9C2 cell line [1]; [7]): significantly inhibit apoptosis | Apoptosis rate of myocardial cells (H9C2 cell line [1]; 200 μM): can decrease apoptosis rate; also recorded: significantly inhibit apoptosis | ROS release (H9C2 cell line [2]; [7]): significantly reduce the release of ROS | ROS release (H9C2 cell line [2]; [8]): significantly reduce the release of ROS | ROS release (H9C2 cell line [2]; concentration not given, FIG. 7): can decrease the release of ROS | Mitochondrial membrane potential changes (H9C2 cell line [3]; [7]): significantly reduce the decrease of mitochondrial membrane potential changes | Mitochondrial membrane potential changes (H9C2 cell line [3]; [8]): significantly reduce the decrease of mitochondrial membrane potential changes | Mitochondrial membrane potential changes (H9C2 cell line [3]; JC-1, hypoxia and reoxygenation, concentration not given, FIG. 6): can inhibit the decrease of mitochondrial membrane potential changes | Binding with Mitofusin 2 (Mfn2) in mitochondria (Mitofusin 2 (Mfn2)): binding with Mitofusin 2 (Mfn2) | Cytotoxicity of myocardial cells (H9C2 cell line [4]): can decrease the cytotoxicity | Survival rate of myocardial cells (H9C2 cell line [5]): capable of increasing survival rate | Protection for myocardial cells induced by hypoxia and reoxygenation [6]: significant protection
